From ChEMBL document CHEMBL3885881, “DrugMatrix”

Species on record: Rattus norvegicus
Assay: DrugMatrix - Regimen: Daily Repeat
Assay type: toxicity, organism-based, Sprague-Dawley
Design: regimen Daily Repeat, gender Male, age 6-8 weeks
Conditions: in vivo, po, route oral GAVAGE, vehicle .5 % CMC; for ABSOLUTE BASOPHIL / ABSOLUTE EOSINOPHIL / ABSOLUTE LYMPHOCYTE / ABSOLUTE MONOCYTE / ABSOLUTE SEGMENTED NEUTROPHIL / BASOPHIL / EOSINOPHIL / ERYTHROCYTE COUNT / HEMATOCRIT / HEMOGLOBIN / LEUKOCYTE COUNT / LYMPHOCYTE / MEAN CORPUSCULAR HEMOGLOBIN / MEAN CORPUSCULAR HEMOGLOBIN CONCENTRATION / MEAN CORPUSCULAR VOLUME / MONOCYTE / NEUTROPHIL / NUCLEATED RED BLOOD CELLS / PLATELET COUNT: tissue Blood; for ALANINE AMINOTRANSFERASE / ALBUMIN / ALKALINE PHOSPHATASE / ASPARTATE AMINOTRANSFERASE / BLOOD UREA NITROGEN / CARBON DIOXIDE / CHLORIDE / CHOLESTEROL / CREATINE PHOSPHOKINASE / CREATININE / GLUCOSE / LACTATE DEHYDROGENASE / LIPASE / PHOSPHORUS / POTASSIUM / SODIUM / TOTAL BILIRUBIN / TOTAL PROTEIN / URIC ACID: tissue Plasma
[1] = 0 mg/kg, 72 h, dose level Control, time 3 day
[2] = 0 mg/kg, 120 h, dose level Control, time 5 day
[3] = 150 mg/kg, 72 h, dose level Low, time 3 day

SMILES: C[C@]1(Cn2ccnn2)[C@H](C(=O)O)N2C(=O)C[C@H]2S1(=O)=O [TAZOBACTAM]
- ABSOLUTE BASOPHIL [1]: 0 CELLS/uL
- ABSOLUTE EOSINOPHIL [1]: 222.83 CELLS/uL
- ABSOLUTE LYMPHOCYTE [1]: 14453 CELLS/uL
- ABSOLUTE MONOCYTE [1]: 0 CELLS/uL
- ABSOLUTE SEGMENTED NEUTROPHIL [1]: 1490.83 CELLS/uL
- BASOPHIL [1]: 0%
- EOSINOPHIL [1]: 1.33%
- ERYTHROCYTE COUNT [1]: 5.76 x10E6/uL
- HEMATOCRIT [1]: 36.52%
- HEMOGLOBIN [1]: 13.45 G/DL
- LEUKOCYTE COUNT [1]: 16.17 x10E3/uL
- LYMPHOCYTE [1]: 89.33%
- MEAN CORPUSCULAR HEMOGLOBIN [1]: 23.37 pg
- MEAN CORPUSCULAR HEMOGLOBIN CONCENTRATION [1]: 36.85 G/DL
- MEAN CORPUSCULAR VOLUME [1]: 63.47 fL
- MONOCYTE [1]: 0%
- NEUTROPHIL [1]: 9.33%
- NUCLEATED RED BLOOD CELLS [1]: 0 /100WBC
- PLATELET COUNT [1]: 1239.5 x10E3/uL
- ALANINE AMINOTRANSFERASE [1]: 43.83 u/L
- ALBUMIN [1]: 4.27 G/DL
- ALKALINE PHOSPHATASE [1]: 398.83 u/L
- ASPARTATE AMINOTRANSFERASE [1]: 81.17 u/L
- BLOOD UREA NITROGEN [1]: 17.67 mg/dL
- CARBON DIOXIDE [1]: 27.5 mmol/L
- CHLORIDE [1]: 99.17 MEQ/L
- CHOLESTEROL [1]: 74 mg/dL
- CREATINE PHOSPHOKINASE [1]: 331.5 u/L
- CREATININE [1]: 0.2 mg/dL
- GLUCOSE [1]: 171.33 mg/dL
- LACTATE DEHYDROGENASE [1]: 241.67 u/L
- LIPASE [1]: 9.5 u/L
- PHOSPHORUS [1]: 12.25 mg/dL
- POTASSIUM [1]: 6.33 MEQ/L
- SODIUM [1]: 141.28 MEQ/L
- TOTAL BILIRUBIN [1]: 0.15 mg/dL
- TOTAL PROTEIN [1]: 5.98 G/DL
- URIC ACID [1]: 1.63 mg/dL
- ABSOLUTE BASOPHIL [2]: 0 CELLS/uL
- ABSOLUTE EOSINOPHIL [2]: 148.67 CELLS/uL
- ABSOLUTE LYMPHOCYTE [2]: 16020.5 CELLS/uL
- ABSOLUTE MONOCYTE [2]: 29.17 CELLS/uL
- ABSOLUTE SEGMENTED NEUTROPHIL [2]: 1468.33 CELLS/uL
- BASOPHIL [2]: 0%
- EOSINOPHIL [2]: 1%
- ERYTHROCYTE COUNT [2]: 5.78 x10E6/uL
- HEMATOCRIT [2]: 35.77%
- HEMOGLOBIN [2]: 13.4 G/DL
- LEUKOCYTE COUNT [2]: 17.67 x10E3/uL
- LYMPHOCYTE [2]: 90.5%
- MEAN CORPUSCULAR HEMOGLOBIN [2]: 23.22 pg
- MEAN CORPUSCULAR HEMOGLOBIN CONCENTRATION [2]: 37.47 G/DL
- MEAN CORPUSCULAR VOLUME [2]: 61.92 fL
- MONOCYTE [2]: 0.17%
- NEUTROPHIL [2]: 8.33%
- NUCLEATED RED BLOOD CELLS [2]: 0.17 /100WBC
- PLATELET COUNT [2]: 1255.5 x10E3/uL
- ALANINE AMINOTRANSFERASE [2]: 46.5 u/L
- ALBUMIN [2]: 4.38 G/DL
- ALKALINE PHOSPHATASE [2]: 336 u/L
- ASPARTATE AMINOTRANSFERASE [2]: 76.5 u/L
- BLOOD UREA NITROGEN [2]: 20 mg/dL
- CARBON DIOXIDE [2]: 27.5 mmol/L
- CHLORIDE [2]: 101 MEQ/L
- CHOLESTEROL [2]: 71.33 mg/dL
- CREATINE PHOSPHOKINASE [2]: 231.83 u/L
- CREATININE [2]: 0.37 mg/dL
- GLUCOSE [2]: 168.83 mg/dL
- LACTATE DEHYDROGENASE [2]: 174 u/L
- LIPASE [2]: 8.67 u/L
- PHOSPHORUS [2]: 11.48 mg/dL
- POTASSIUM [2]: 6.82 MEQ/L
- SODIUM [2]: 143.8 MEQ/L
- TOTAL BILIRUBIN [2]: 0.2 mg/dL
- TOTAL PROTEIN [2]: 5.98 G/DL
- URIC ACID [2]: 1.83 mg/dL
- ABSOLUTE BASOPHIL [3]: 0 CELLS/uL
- ABSOLUTE EOSINOPHIL [3]: 82.67 CELLS/uL
- ABSOLUTE LYMPHOCYTE [3]: 6416 CELLS/uL
- ABSOLUTE MONOCYTE [3]: 0 CELLS/uL
- ABSOLUTE SEGMENTED NEUTROPHIL [3]: 534.67 CELLS/uL
- BASOPHIL [3]: 0%
- EOSINOPHIL [3]: 1%
- ERYTHROCYTE COUNT [3]: 5.07 x10E6/uL
- HEMATOCRIT [3]: 32.53%
- HEMOGLOBIN [3]: 12.5 G/DL
- LEUKOCYTE COUNT [3]: 7.03 x10E3/uL
- LYMPHOCYTE [3]: 91.67%
- MEAN CORPUSCULAR HEMOGLOBIN [3]: 24.63 pg
- MEAN CORPUSCULAR HEMOGLOBIN CONCENTRATION [3]: 38.43 G/DL
- MEAN CORPUSCULAR VOLUME [3]: 64.17 fL
- MONOCYTE [3]: 0%
- NEUTROPHIL [3]: 7.33%
- NUCLEATED RED BLOOD CELLS [3]: 0 /100WBC
- PLATELET COUNT [3]: 1184.33 x10E3/uL
- ALANINE AMINOTRANSFERASE [3]: 52.67 u/L
- ALBUMIN [3]: 4.23 G/DL
- ALKALINE PHOSPHATASE [3]: 410.33 u/L
- ASPARTATE AMINOTRANSFERASE [3]: 79.67 u/L
- BLOOD UREA NITROGEN [3]: 16.67 mg/dL
- CARBON DIOXIDE [3]: 24.33 mmol/L
- CHLORIDE [3]: 104 MEQ/L
- CHOLESTEROL [3]: 78 mg/dL
- CREATINE PHOSPHOKINASE [3]: 280.33 u/L
- CREATININE [3]: 0.2 mg/dL
- GLUCOSE [3]: 152.33 mg/dL
- LACTATE DEHYDROGENASE [3]: 134.33 u/L
- LIPASE [3]: 8 u/L
- PHOSPHORUS [3]: 11.47 mg/dL
- POTASSIUM [3]: 6.02 MEQ/L
- SODIUM [3]: 144.87 MEQ/L
- TOTAL BILIRUBIN [3]: 0.2 mg/dL
- TOTAL PROTEIN [3]: 5.9 G/DL
- URIC ACID [3]: 1.03 mg/dL
